This is an account of results in patent US20250179079A1, “HEXAHYDROPYRIDO[4,3-B]INDOLYL KETONE DERIVATIVES USEFUL AS CGAS MODULATORS” (Ventus Therapeutics U.S., Inc., priority 2022, published 2025).

For the assay, the target named is h-cGAS (Homo sapiens (Human), UniProt Q8N884). The assay is described as follows: hcGAS Kinase-Glo assay. It counts as biochemical. On the technique in general: Kinase-Glo measures the ATP left after a reaction by luminescence.
Where [1] appears, read: Table C, raw data in parentheses, read-out: hcGAS IC50.
The mark [2] stands for this setting: Table C, IC50 range designation, read-out: hcGAS IC50.

Where two headings read alike, the source gives them in different places. A value given as a limit tells only on which side of the number the result lay.

Chain of h-cGAS (Q8N884 whole entry): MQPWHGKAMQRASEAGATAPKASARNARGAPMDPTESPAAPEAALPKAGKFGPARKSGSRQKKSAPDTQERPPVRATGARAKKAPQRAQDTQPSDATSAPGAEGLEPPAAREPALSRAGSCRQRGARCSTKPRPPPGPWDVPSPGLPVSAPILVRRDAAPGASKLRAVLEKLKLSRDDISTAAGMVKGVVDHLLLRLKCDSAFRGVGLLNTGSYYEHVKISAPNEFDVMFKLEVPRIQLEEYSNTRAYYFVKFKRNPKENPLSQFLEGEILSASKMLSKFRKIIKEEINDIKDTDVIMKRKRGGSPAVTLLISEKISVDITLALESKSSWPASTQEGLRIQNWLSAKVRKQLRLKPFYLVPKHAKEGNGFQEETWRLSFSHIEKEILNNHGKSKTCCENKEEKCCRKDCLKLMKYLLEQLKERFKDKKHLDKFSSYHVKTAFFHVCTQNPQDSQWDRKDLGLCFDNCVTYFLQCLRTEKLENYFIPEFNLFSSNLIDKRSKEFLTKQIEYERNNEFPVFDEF

As to `CC1c2c([nH]c3c(Cl)c(Cl)ccc23)CCN1C(=O)c1ncc(N2CCOCC2)cn1` (racemic) [Rac-44, (6,7-dichloro-1-methyl-1,3,4,5-tetrahydro-2H-pyrido[4,3-b]indol-2-yl)(5-morpholinopyrimidin-2-yl)methanone], the IC50 under setting [1] was found to be 68.5 nM and the IC50 (read-out: hcGAS activity) was below 100 nM.

For the compound `COc1cnc(C(=O)N2CCc3[nH]c4c(Cl)c(Cl)cc(OC)c4c3C2C)nc1` (racemic) [Rac-132, (6,7-dichloro-9-methoxy-1-methyl-1,3,4,5-tetrahydro-2H-pyrido[4,3-b]indol-2-yl)(5-methoxypyrimidin-2-yl)methanone], under setting [1], the IC50 came out at 45.5 nM.

Consider `CC1c2c([nH]c3c(Cl)c(Cl)ccc23)CCN1C(=O)c1nccc(OCCN(C)C)n1` (racemic) [Rac-88, (6,7-dichloro-1-methyl-1,3,4,5-tetrahydro-2H-pyrido[4,3-b]indol-2-yl)(4-(2-(dimethylamino)ethoxy)pyrimidin-2-yl)methanone], for which the IC50 under setting [1] turned out to be 110 nM.

On to `NCC(=O)N1Cc2[nH]c3c(Cl)c(Cl)ccc3c2C1` [Compound 65, 2-amino-1-(5,6-dichloro-3,4-dihydropyrrolo[3,4-b]indol-2(1H)-yl)ethan-1-one], for which the IC50 reads like this: under setting [2], 500 to 1000 nM; under setting [1], 933 nM.

Take `C[C@H]1c2c3c(-c4ccn(C)n4)cc(Cl)c(Cl)c3nn2CCN1C(=O)CO` (single isomer, unassigned) [61B*]: the IC50 by setting is: under setting [2], below 100 nM; under setting [1], 59.9 nM.

Consider `CNCC(=O)N1CCc2[nH]c3c(Cl)c(Cl)ccc3c2C1` [Compound 64, 1-(6,7-dichloro-1,3,4,5-tetrahydro-2H-pyrido[4,3-b]indol-2-yl)-2-(methylamino)ethan-1-one], for which the IC50 under setting [1] was 1490 nM and the IC50 (read-out: hcGAS activity) was in the range of 1000 to 5000 nM.

`COc1cnc(C(=O)N2CCc3[nH]c4c(Cl)c(Cl)cc(SC)c4c3C2C)nc1` (racemic) [Rac-101, (6,7-dichloro-1-methyl-9-(methylthio)-1,3,4,5-tetrahydro-2H-pyrido[4,3-b]indol-2-yl)(5-methoxypyrimidin-2-yl)methanone]: under setting [1], the IC50 worked out at 409 nM.

On to `CC1c2c([nH]c3c(Cl)c(Cl)ccc23)CCN1C(=O)c1ncc(N(C)CCN(C)C)cn1` (racemic) [Rac-47, (6,7-dichloro-1-methyl-1,3,4,5-tetrahydro-2H-pyrido[4,3-b]indol-2-yl)(5-((2-(dimethylamino)ethyl)(methyl)amino)pyrimidin-2-yl)methanone], for which the IC50 under setting [1] is 50.1 nM.

With `COc1ccc(C(=O)N2CCc3[nH]c4c(Cl)c(Cl)ccc4c3C2)nn1` [Compound 56, (6,7-dichloro-1,3,4,5-tetrahydro-2H-pyrido[4,3-b]indol-2-yl)(6-methoxypyridazin-3-yl)methanone], the IC50 is 1000 to 5000 nM under setting [2] and 4350 nM under setting [1].

For `O=C(c1nnn[nH]1)N1CCc2[nH]c3c(Cl)c(Cl)ccc3c2C1` [Compound 7, (6,7-dichloro-1,3,4,5-tetrahydro-2H-pyrido[4,3-b]indol-2-yl)(1H-tetrazol-5-yl)methanone], the IC50 runs as follows: under setting [2], 1000 to 5000 nM; under setting [1], 3300 nM; (read-out: hcGAS activity) 1000 to 5000 nM.

Take `COc1cnc(C(=O)N2CCn3nc4c(Cl)c(Cl)ccc4c3[C@H]2C)nc1` (single isomer, unassigned) [52A*]: the IC50 by setting is: under setting [2], above 5000 nM; under setting [1], above 10000 nM.

`Cn1cnc(C(=O)N2CCc3[nH]c4c(Cl)c(Cl)ccc4c3C2)n1` [Compound 9, (6,7-dichloro-1,3,4,5-tetrahydro-2H-pyrido[4,3-b]indol-2-yl)(1-methyl-1H-1,2,4-triazol-3-yl)methanone]: the IC50 reads like this: under setting [2], 1000 to 5000 nM; under setting [1], 1070 nM; (read-out: hcGAS activity) 1000 to 5000 nM.

Consider `CC1c2c([nH]c3c(Cl)c(Cl)ccc23)CCN1C(=O)CN` (racemic) [Rac-51, 2-amino-1-(6,7-dichloro-1-methyl-1,3,4,5-tetrahydro-2H-pyrido[4,3-b]indol-2-yl)ethan-1-one], for which the IC50 under setting [1] was found to be 37.7 nM.

Take `COCCOCn1c2c(c3ccc(Cl)c(Cl)c31)CN(C(=O)c1ncc(OC)cn1)CC2` [Compound 23, (6,7-dichloro-5-((2-methoxyethoxy)methyl)-1,3,4,5-tetrahydro-2H-pyrido[4,3-b]indol-2-yl)(5-methoxypyrimidin-2-yl)methanone]: the IC50 is, setting by setting: under setting [2], 1000 to 5000 nM; under setting [1], 2250 nM; (read-out: hcGAS activity) 1000 to 5000 nM.

Consider `NNC(=O)N1CCc2[nH]c3c(Cl)c(Cl)ccc3c2C1` [Compound 59, 6,7-dichloro-1,3,4,5-tetrahydro-2H-pyrido[4,3-b]indole-2-carbohydrazide], for which the IC50 was 100 to 500 nM under setting [2], 620 nM under setting [1] and 100 to 500 nM (read-out: hcGAS activity).

Consider `O=C(c1ncc(F)cn1)N1CCc2[nH]c3c(Cl)c(Cl)ccc3c2C1` [Compound 15, (6,7-dichloro-1,3,4,5-tetrahydro-2H-pyrido[4,3-b]indol-2-yl)(5-fluoropyrimidin-2-yl)methanone], for which the IC50 runs as follows: under setting [2], 500 to 1000 nM; under setting [1], 842 nM; (read-out: hcGAS activity) 500 to 1000 nM.

Turning to `NC(=O)C(=O)N1CCc2[nH]c3c(Cl)c(Cl)ccc3c2C1` [Compound 57, 2-(6,7-dichloro-1,3,4,5-tetrahydro-2H-pyrido[4,3-b]indol-2-yl)-2-oxoacetamide], the IC50 runs as follows: under setting [2], 1000 to 5000 nM; under setting [1], 4210 nM; (read-out: hcGAS activity) 1000 to 5000 nM.

As to `NCC(=O)N1C2COCC1c1c([nH]c3c(Cl)c(Cl)ccc13)C2` (centres unmarked) [Compound 66, 2-amino-1-(8,9-dichloro-1,2,4,5,6,7-hexahydro-1,5-epiminooxocino[5,4-b]indol-12-yl)ethan-1-one], the IC50 under setting [2] lay in the range of 100 to 500 nM, the IC50 under setting [1] amounted to 314 nM and the IC50 (read-out: hcGAS activity) lay within 100 to 500 nM.

Consider `CNc1cnc(C(=O)N2CCc3[nH]c4c(Cl)c(Cl)ccc4c3C2C)nc1` (racemic) [Rac-46, (6,7-dichloro-1-methyl-1,3,4,5-tetrahydro-2H-pyrido[4,3-b]indol-2-yl)(5-(methylamino)pyrimidin-2-yl)methanone], for which the IC50 is, setting by setting: under setting [1], 51.4 nM; (read-out: hcGAS activity) below 100 nM.

Take `C[C@H]1c2c([nH]c3c(Cl)c(Cl)ccc23)CCN1C(=O)CN` (single isomer, unassigned) [51B*]: the IC50 runs as follows: under setting [2], below 100 nM; under setting [1], 17.8 nM.

As for `CC1c2c([nH]c3c(Cl)c(Cl)ccc23)CCN1C(=O)c1ncc(N2CCN(C3COC3)CC2)cn1` (racemic) [Rac-49, (6,7-dichloro-1-methyl-1,3,4,5-tetrahydro-2H-pyrido[4,3-b]indol-2-yl)(5-(4-(oxetan-3-yl)piperazin-1-yl)pyrimidin-2-yl)methanone], the IC50 under setting [1] was 102 nM.

Take `CONC(=O)N1CCc2[nH]c3c(Cl)c(Cl)ccc3c2C1C` (racemic) [Rac-98, 6,7-dichloro-N-methoxy-1-methyl-1,3,4,5-tetrahydro-2H-pyrido[4,3-b]indole-2-carboxamide]: the IC50 under setting [1] was 1320 nM.

For the compound `COc1cnc(C(=O)N2CCc3[nH]c4c(Cl)c(Cl)ccc4c3C2C)nc1OC` (racemic) [Rac-83, (6,7-dichloro-1-methyl-1,3,4,5-tetrahydro-2H-pyrido[4,3-b]indol-2-yl)(4,5-dimethoxypyrimidin-2-yl)methanone], the IC50 under setting [1] stood at 206 nM.

For the compound `COCCOc1ccnc(C(=O)N2CCc3[nH]c4c(Cl)c(Cl)ccc4c3C2C)n1` (racemic) [Rac-67, (6,7-dichloro-1-methyl-1,3,4,5-tetrahydro-2H-pyrido[4,3-b]indol-2-yl)(4-(2-methoxyethoxy)pyrimidin-2-yl)methanone], the IC50 was 251 nM under setting [1] and below 100 nM (read-out: hcGAS activity).

For the compound `O=C(c1ncc[nH]1)N1CCc2[nH]c3c(Cl)c(Cl)ccc3c2C1` [Compound 5, (6,7-dichloro-1,3,4,5-tetrahydro-2H-pyrido[4,3-b]indol-2-yl)(1H-imidazol-2-yl)methanone], the IC50 is 500 to 1000 nM under setting [2], 878 nM under setting [1] and 500 to 1000 nM (read-out: hcGAS activity).

On to `COCCNCC(=O)N1CCc2[nH]c3c(Cl)c(Cl)ccc3c2C1` [Compound 69, 1-(6,7-dichloro-1,3,4,5-tetrahydro-2H-pyrido[4,3-b]indol-2-yl)-2-((2-methoxyethyl)amino)ethan-1-one], for which the IC50 is 500 to 1000 nM under setting [2], 678 nM under setting [1] and 1000 to 5000 nM (read-out: hcGAS activity).

For `COc1ccnc(C(=O)N2CCc3[nH]c4c(Cl)c(Cl)ccc4c3C2C)n1` (racemic) [Rac-68, (6,7-dichloro-1-methyl-1,3,4,5-tetrahydro-2H-pyrido[4,3-b]indol-2-yl)(4-methoxypyrimidin-2-yl)methanone], the IC50 by setting is: under setting [1], 94.5 nM; (read-out: hcGAS activity) below 100 nM.

With `COc1cnc(C(=O)N2CCc3[nH]c4c(Cl)c(Cl)cc(C)c4c3C2C)nc1` (racemic) [Rac-103, (6,7-dichloro-1,9-dimethyl-1,3,4,5-tetrahydro-2H-pyrido[4,3-b]indol-2-yl)(5-methoxypyrimidin-2-yl)methanone], under setting [1], the IC50 amounted to 115 nM.

For the compound `Cc1cnc(C(=O)N2CCc3[nH]c4c(Cl)c(Cl)ccc4c3C2)[nH]1` [Compound 10, (6,7-dichloro-1,3,4,5-tetrahydro-2H-pyrido[4,3-b]indol-2-yl)(5-methyl-1H-imidazol-2-yl)methanone], the IC50 reads like this: under setting [2], 1000 to 5000 nM; under setting [1], 3220 nM; (read-out: hcGAS activity) 1000 to 5000 nM.

For `C[C@H]1c2c([nH]c3c(Cl)c(Cl)ccc23)CCN1C(=O)c1ncc(C#N)[nH]1` (single isomer, unassigned) [95B*], the IC50 under setting [1] is 587 nM.

As to `O=C(c1ncc(N2CCOCC2)cn1)N1CCc2[nH]c3c(Cl)c(Cl)ccc3c2C1` [Compound 31, (6,7-dichloro-1,3,4,5-tetrahydro-2H-pyrido[4,3-b]indol-2-yl)(5-morpholinopyrimidin-2-yl)methanone], the IC50 reads like this: under setting [2], 100 to 500 nM; under setting [1], 222 nM; (read-out: hcGAS activity) 100 to 500 nM.

Take `CC1c2c([nH]c3c(Cl)c(Cl)ccc23)CCN1C(=O)c1nccc(OCCO)n1` (racemic) [Rac-70, (6,7-dichloro-1-methyl-1,3,4,5-tetrahydro-2H-pyrido[4,3-b]indol-2-yl)(4-(2-hydroxyethoxy)pyrimidin-2-yl)methanone]: the IC50 reads like this: under setting [1], 78.7 nM; (read-out: hcGAS activity) below 100 nM.
